Results taken from patent US20160362416A1, “ANTIVIRAL COMPOUNDS” (Gilead Sciences, Inc., priority 2012, published 2016).

Columns and labels:
[1] = test system: NS5A chimeric genotype 1b Con1 replicon with genotype 4a ED43 strain NS5A gene; assay: HCV genotype 4a NS5A chimeric replicon assay; assay type: cell-based; conditions: Hepatitis C virus, 72 h, read-out: 4a (s) (nM)
[2] = test system: NS5A chimeric genotype 2a JFH-1 replicon with genotype 2b MD2b-1 strain NS5A gene (M31); assay: HCV genotype 2b NS5A chimeric replicon assay, stable (s); assay type: cell-based; conditions: Hepatitis C virus, 72 h, read-out: 2b (s) (nM)
[3] = test system: Q30E in genotype 1a NS5A replicon; assay: Resistance mutant replicon assay, genotype 1a NS5A Q30E; assay type: cell-based, HCV; conditions: Hepatitis C virus, read-out: 1a Q30E (nM)
In short: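 Renilla luciferase signal after 72 h compound exposure gave EC50 via non-linear regression. Cells were Huh-7-derived cured-51 transiently transfected with replicon RNA carrying the NS5A mutation introduced by site-directed mutagenesis into 1a or 1b Pi-RLuc replicons.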

[4] = test system: NS5A chimeric genotype 2a JFH-1 replicon with genotype 2a J6 strain NS5A gene (M31); assay: HCV genotype 2a J6 NS5A chimeric replicon assay, transient (t); assay type: cell-based; conditions: Hepatitis C virus, 72 h, read-out: 2a J6 (t) (nM)

COC(=O)N[C@H](C(=O)N1[C@@H](C)CC[C@H]1c1ncc(-c2ccc3c(c2)COc2cc4c(ccc5nc([C@@H]6CC[C@H](C)N6C(=O)[C@@H](NC(=O)OC)C6CC(C)O[C@H](C)C6)[nH]c54)cc2-3)[nH]1)C(C)C (stereo in doubt) [Example AQ, Methyl {(2S)-1-[(2S,5S)-2-(5-{2-[(2S,5S)-1-{(2S)-2-[(2R,6R)-2,6-dimethyltetrahydro-2H-pyran-4-yl]-2-[(methoxycarbonyl)amino]acetyl}-5-methylpyrrolidin-2-yl]-1,11-dihydroisochromeno[4′,3′:6,7]naphtho[1,2-d]imidazol-9-yl}-1H-imidazol-2-yl)-5-methylpyrrolidin-1-yl]-3-methyl-1-oxobutan-2-yl}carbamate]
EC50 [1]: 0.012 nM | EC50 [2]: 0.032 nM | EC50 [3]: 0.074 nM | EC50 [4]: 0.011 nM

CC[C@H]1CC[C@@H](c2nc3ccc4cc5c(cc4c3[nH]2)OCc2cc(-c3cnc([C@@H]4CC[C@H](C)N4C(=O)[C@@H](NC(=O)OC)C(C)C)[nH]3)ccc2-5)N1C(=O)[C@@H](NC(=O)OC)C1CCOCC1 [Comp 3, reference compound]
EC50 [1]: 0.014 nM | EC50 [2]: 0.095 nM | EC50 [3]: 0.526 nM | EC50 [4]: 0.061 nM

CC[C@H](C)[C@H](NC(=O)OC)C(=O)N1[C@@H](C)CC[C@H]1c1ncc(-c2ccc3c(c2)COc2cc4c(ccc5nc([C@@H]6CC[C@H](C)N6C(=O)[C@@H](NC(=O)OC)C6CCOCC6)[nH]c54)cc2-3)[nH]1 [Comp 4, reference compound]
EC50 [1]: 0.021 nM | EC50 [2]: 0.074 nM | EC50 [3]: 0.432 nM | EC50 [4]: 0.026 nM

CC[C@H](C)[C@H](NC(=O)OC)C(=O)N1[C@@H](C)CC[C@H]1c1nc2ccc3cc4c(cc3c2[nH]1)OCc1cc(-c2cnc([C@@H]3CC[C@H](C)N3C(=O)[C@@H](NC(=O)OC)C3CCOCC3)[nH]2)ccc1-4 [Comp 12, reference compound]
EC50 [1]: 17.7 nM | EC50 [2]: 0.07 nM | EC50 [4]: 0.032 nM

CC[C@H](C)[C@H](NC(=O)OC)C(=O)N1[C@@H](C)CC[C@H]1c1ncc(-c2ccc3c(c2)COc2cc4c(ccc5nc([C@@H]6CC[C@H](C)N6C(=O)[C@@H](NC(=O)OC)C6C[C@@H](C)O[C@H](C)C6)[nH]c54)cc2-3)[nH]1 (stereo partly drawn) [Example AA, Methyl {(2S,3S)-1-[(2S,5S)-2-(5-{2-[(2S,5S)-1-{(2S)-2-[(2R,6R)-2,6-dimethyltetrahydro-2H-pyran-4-yl]-2-[(methoxycarbonyl)amino]acetyl}-5-methylpyrrolidin-2-yl]-1,11-dihydroisochromeno[4′,3′:6,7]naphtho[1,2-d]imidazol-9-yl}-1H-imidazol-2-yl)-5-methylpyrrolidin-1-yl]-3-methyl-1-oxopentan-2-yl}carbamate]
EC50 [1]: 0.008 nM | EC50 [2]: 0.029 nM | EC50 [3]: 0.145 nM | EC50 [4]: 0.006 nM

COC(=O)N[C@H](C(=O)N1[C@@H](C)CC[C@H]1c1ncc(-c2ccc3c(c2)COc2cc4c(ccc5nc([C@@H]6CC[C@H](C)N6C(=O)[C@@H](NC(=O)OC)[C@H]6C[C@@H](C)O[C@@H](C)C6)[nH]c54)cc2-3)[nH]1)C(C)C [Example AM, Methyl {(2S)-1-[(2S,5S)-2-(5-{2-[(2S,5S)-1-{(2S)-2-[(2R,6S)-2,6-dimethyltetrahydro-2H-pyran-4-yl]-2-[(methoxycarbonyl)amino]acetyl}-5-methylpyrrolidin-2-yl]-1,11-dihydroisochromeno[4′,3′:6,7]naphtho[1,2-d]imidazol-9-yl}-1H-imidazol-2-yl)-5-methylpyrrolidin-1-yl]-3-methyl-1-oxobutan-2-yl}carbamate]
EC50 [1]: 0.01 nM | EC50 [2]: 0.023 nM | EC50 [3]: 1.21 nM | EC50 [4]: 0.008 nM

COC(=O)N[C@H](C(=O)N1[C@@H](C)CC[C@H]1c1nc2ccc3cc4c(cc3c2[nH]1)OCc1cc(-c2cnc([C@@H]3CC[C@H](C)N3C(=O)[C@@H](NC(=O)OC)[C@H]3C[C@@H](C)O[C@@H](C)C3)[nH]2)ccc1-4)C(C)C [Example AO, Methyl {(2S)-1-[(2S,5S)-2-(9-{2-[(2S,5S)-1-{(2S)-2-[(2R,6S)-2,6-dimethyltetrahydro-2H-pyran-4-yl]-2-[(methoxycarbonyl)amino]acetyl}-5-methylpyrrolidin-2-yl]-1H-imidazol-5-yl}-1,11-dihydroisochromeno[4′,3′:6,7]naphtho[1,2-d]imidazol-2-yl)-5-methylpyrrolidin-1-yl]-3-methyl-1-oxobutan-2-yl}carbamate]
EC50 [1]: 0.018 nM | EC50 [2]: 0.045 nM | EC50 [3]: 1.78 nM | EC50 [4]: 0.017 nM

COC(=O)N[C@H](C(=O)N1[C@@H](C)CC[C@H]1c1nc2ccc3cc4c(cc3c2[nH]1)OCc1cc(-c2cnc([C@@H]3CC[C@H](C)N3C(=O)[C@@H](NC(=O)OC)C3C[C@@H](C)O[C@H](C)C3)[nH]2)ccc1-4)C(C)C (some centres unmarked) [Example AS]
EC50 [1]: 0.024 nM | EC50 [2]: 0.064 nM | EC50 [3]: 0.115 nM | EC50 [4]: 0.015 nM

COC(=O)N[C@H](C(=O)N1[C@@H](C)CC[C@H]1c1ncc(-c2ccc3c(c2)COc2cc4c(ccc5nc([C@@H]6CC[C@H](C)N6C(=O)[C@@H](NC(=O)OC)C6C[C@@H](C)O[C@H](C)C6)[nH]c54)cc2-3)[nH]1)C1C[C@@H](C)O[C@H](C)C1 (stereo partly drawn) [Example AU, Methyl {(1S)-1-[(2R,6R)-2,6-dimethyltetrahydro-2H-pyran-4-yl]-2-[(2S,5S)-2-(5-{2-[(2S,5S)-1-{(2S)-2-[(2R,6R)-2,6-dimethyltetrahydro-2H-pyran-4-yl]-2-[(methoxycarbonyl)amino]acetyl}-5-methylpyrrolidin-2-yl]-1,11-dihydroisochromeno[4′,3′:6,7]naphtho[1,2-d]imidazol-9-yl}-1H-imidazol-2-yl)-5-methylpyrrolidin-1-yl]-2-oxoethyl}carbamate]
EC50 [1]: 0.017 nM | EC50 [2]: 0.023 nM | EC50 [3]: 0.042 nM | EC50 [4]: 0.008 nM

COC[C@H]1C[C@@H](c2ncc(-c3ccc4c(c3)COc3cc5c(ccc6nc([C@@H]7CC[C@H](C)N7C(=O)[C@@H](NC(=O)OC)C7C[C@@H](C)O[C@H](C)C7)[nH]c65)cc3-4)[nH]2)N(C(=O)[C@@H](NC(=O)OC)C2C[C@@H](C)O[C@H](C)C2)C1 (stereo partly drawn) [Example BH, Methyl {(1S)-1-[(2R,6R)-2,6-dimethyltetrahydro-2H-pyran-4-yl]-2-[(2S,5S)-2-(9-{2-[(2S,4S)-1-{(2S)-2-[(2R,6R)-2,6-dimethyltetrahydro-2H-pyran-4-yl]-2-[(methoxycarbonyl)amino]acetyl}-4-(methoxymethyl)pyrrolidin-2-yl]-1H-imidazol-5-yl}-1,11-dihydroisochromeno[4′,3′:6,7]naphtho[1,2-d]imidazol-2-yl)-5-methylpyrrolidin-1-yl]-2-oxoethyl}carbamate]
EC50 [1]: 0.024 nM | EC50 [2]: 0.027 nM | EC50 [4]: 0.055 nM
